Measured values published in patent US20250179032A1, “HETEROCYCLIC INHIBITORS OF GLUT9 FOR TREATMENT OF DISEASE” (HORIZON THERAPEUTICS IRELAND DAC, priority 2022, published 2025).

Target: T1, H. sapiens SLC2A9 variant 2 (GLUT9B) (Homo sapiens, UniProt Q9NRM0)
T1 sequence (Q9NRM0 1-511 isoform Q9NRM0-2): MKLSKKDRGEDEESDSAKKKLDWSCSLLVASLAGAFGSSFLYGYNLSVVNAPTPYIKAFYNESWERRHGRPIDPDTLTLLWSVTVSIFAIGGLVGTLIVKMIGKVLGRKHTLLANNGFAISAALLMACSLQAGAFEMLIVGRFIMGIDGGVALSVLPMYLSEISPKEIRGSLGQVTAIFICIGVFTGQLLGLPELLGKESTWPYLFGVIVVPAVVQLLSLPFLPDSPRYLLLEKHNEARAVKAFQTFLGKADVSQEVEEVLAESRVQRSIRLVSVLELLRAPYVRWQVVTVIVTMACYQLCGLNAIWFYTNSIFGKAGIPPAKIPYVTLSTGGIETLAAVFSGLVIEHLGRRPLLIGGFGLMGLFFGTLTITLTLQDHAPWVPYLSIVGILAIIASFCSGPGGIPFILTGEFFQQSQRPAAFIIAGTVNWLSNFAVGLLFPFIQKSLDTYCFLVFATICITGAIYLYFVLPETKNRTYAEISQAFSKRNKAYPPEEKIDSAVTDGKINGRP
Assay: GLUT9 functional assay: uric acid uptake in HEK293T cells, allantoin formation by MS/MS as proxy of GLUT9B inhibition
Type: cell-based
Settings: 15 minute assay; HEK293T cells stably expressing GLUT9B and transiently A. oryzae uricase; uric acid 0.3 mM, 37° C.; read-out: 15 min IC50
Procedure: Uric acid stocks (9 mM, Millipore-Sigma, U0881) were generated in 125 mM choline chloride (Millipore-Sigma, C7017) and the concentration was determined at 293 nm using a molar extinction coefficient of 9600 M- ^1 cm- ^1) after collecting the absorbance spectra from 220-350 nm. Allantoin stocks (12 mM Toronto Research Chemicals, A540500) were generated in LCMS grade water (Thermo Scientific, 51140). The concentration of allantoin was determined by qNMR (Michigan State University). HEK293T cells were purchased from ATCC (HEK 293T/17 SF). Hanks buffered saline salts (HBSS) was purchased from Millipore-Sigma (H6648-1L).
SLC2A9 variant 2 was assayed in sodium gluconate buffer was composed of 125 mM sodium gluconate (TCI Chemicals, G0041-500G), 4.8 mM potassium gluconate (TCI Chemicals, G0040-500G), 1.2 mM calcium gluconate (TCI Chemicals, G0037-500G), 1.2 mM potassium phosphate (pH 7.4, Millipore-Sigma, 17835), 1.2 mM MgSO4, Millipore-Sigma, M2773-500G), 25 mM HEPES pH 7.3, (Millipore-Sigma, 54457). The final pH of the buffer was 7.4. Urate 1 was assayed in the same buffer save the pH was made to be 5.5 using 25 mM MES (pH 5.5) buffer vs 25 mM HEPES (pH 7.3) buffer.
Human untagged clone for (untagged)-human solute carrier family 2 member 9 (SLC2A9), transcript variant (SLC2A9/NM_001001290, FIG. 1 and FIG. 2; SEQ ID NOS: 3 and 4) was purchased from Origene (Cat #SC319239). SLC2A9 variant 2 (GLUT9B) gene was amplified by PCR using the following primer to allow for the introduction of EcoR1 and Not1 sites using the primers below.
HEK293T clonal stable cell lines containing the SLC2A9 variant 2 construct in the bicistronic pIRESpuro vector were generated using Viafect™ (Promega E4981) as per the manufactures instructions and puromycin selection (5 μg×mL^−1).
Uric acid uptake was measured in HEK293T cells stably expressing H. sapiens SLC2A9 variant 2 (GLUT9B) and transiently expressing A. oryzae uricase. Thus, decreased allantoin formation was used as a proxy of GLUT9B inhibition. Briefly, clonal cells were plated (53,000 cells/cm^2) in DMEM with 10% FBS. Twenty-four hours later, A. oryzae uricase was transfected, and assay conducted 3 days later across a 12-point curve in buffer (in mM: 125 sodium gluconate, 4.8 potassium gluconate, 1.2 calcium gluconate, 1.2 potassium phosphate, 1.2 magnesium sulfate4, 25 HEPES; pH 7.4) with uric acid at the GLUT9B Km (0.3 mM) for 15 min or for 60 min, at 37° C. Following wash (Hanks, 37° C.), plates were sealed, incubated (5 min, RT) and cells freeze-thawed prior to lysing in water and shaking (30 min RT). Lysates were filtered through PVDF and subjected to MSMS using a 10 mM ammonium acetate-based mobile phase on a porous graphitic carbon column. Allantoin was detected in positive ion mode. Desired analyte concentrations were quantitated by integrating the area under the curve followed by a log-logistic regression model and data compared to a standard curve prepared in a matching HEK293T biological matrix.
Mass spectrometry measurement of allantoin was completed using an Agilent RapidFire 300 coupled to a Sciex API 4000 mass spectrometer. The stationary phase was an Agilent cartridge D (hypercarb). Mobile phase A was 10 mM ammonium acetate. Mobile phase B was 5 mM ammonium acetate, 25% acetonitrile, 25% acetone. Allantoin was detected in positive ion mode with the following compound ID settings: Q1 159, Q3 115.8, DP 57, CE 12.5 Dwell 100 ms. The source settings were CAD 10, CUR 20, GS1 50, GS250 IS/NC: 5000, TEM 650, EP 10, CXP 10 where Q1 and Q3 resolution were set to low.
Data was quantitated using Area under the curve integration was performed with the RapidFire™ Integrator (Agilent Technologies) for the desired analytes. Quantitation was completed using in a using a log-logistic regression model using allantoin in matching HEK293T biological matrix.

Structure (SMILES) | IC50 [µM]
CCCCc1cnc(-c2ccc(OC)cc2)c(-c2ccc(C(=O)O)cn2)c1 [Compound 24, 5′-butyl-2′-(4-methoxyphenyl)-[2,3′-bipyridine]-5-carboxylic acid] | > 2
CCCCc1cnc(-c2ccc(OC)cc2)c(-c2ncc(C(=O)O)s2)c1 [Compound 25, 2-(5-butyl-2-(4-methoxyphenyl)pyridin-3-yl)thiazole-5-carboxylic acid] | > 2
CCCCc1cnc(-c2ccc(OC)cc2)c(-c2cc(=O)[nH][nH]2)c1 [Compound 26, 5-(5-butyl-2-(4-methoxyphenyl)pyridin-3-yl)-1,2-dihydro-3H-pyrazol-3-one] | > 2
COc1ccc(-c2ncc(COCC(F)(F)F)nc2N2CCC(C(=O)O)CC2)cc1 [Compound 32, 1-(3-(4-methoxyphenyl)-6-((2,2,2-trifluoroethoxy)methyl)pyrazin-2-yl)piperidine-4-carboxylic acid] | > 2
CCCCc1cnc(-c2ccc(OC)cc2)c(-c2ccc3c(c2)COC3=O)n1 [Compound 35, 5-(6-butyl-3-(4-methoxyphenyl)pyrazin-2-yl)isobenzofuran-1(3H)-one] | 0.5 to 2
CCCCc1cnc(-c2ccc(OC)cc2)c(N2CC3(CC(C(=O)O)C3)C2)n1 [Compound 36, 2-(6-butyl-3-(4-methoxyphenyl)pyrazin-2-yl)-2-azaspiro[3.3]heptane-6-carboxylic acid] | 0.5 to 2
CCCCc1cnc(-c2cc(F)c(OCCOC)c(F)c2)c(N2CCC(C(=O)O)CC2)n1 [Compound 38, 1-(6-butyl-3-(3,5-difluoro-4-(2-methoxyethoxy)phenyl)pyrazin-2-yl)piperidine-4-carboxylic acid] | 0.5 to 2

Continued, values first:

IC50 [µM] | Structure (SMILES)
0.5 to 2 | CCCCc1cnc(-c2ccc(OC)cc2)c(-c2ccc3c(c2)CNC3=O)c1 [Compound 27, 5-(5-butyl-2-(4-methoxyphenyl)pyridin-3-yl)isoindolin-1-one]
0.5 to 2 | CCCCc1nc(-c2ccc(OC)cc2)c(N2CCC(C(=O)O)CC2)o1 [Compound 28, 1-(2-butyl-4-(4-methoxyphenyl)oxazol-5-yl)piperidine-4-carboxylic acid]
< 0.5 | CCCCc1cnc(-c2ccc(OC)cc2)c(-c2cn(CC(=O)O)nn2)c1 [Compound 29, 2-(4-(5-butyl-2-(4-methoxyphenyl)pyridin-3-yl)-1H-1,2,3-triazol-1-yl)acetic acid]
< 0.5 | COc1ccc(-c2ncc(CCC(F)(F)C(F)(F)F)nc2N2CCC(C(=O)O)CC2)cc1 [Compound 30, 1-(3-(4-methoxyphenyl)-6-(3,3,4,4,4-pentafluorobutyl)pyrazin-2-yl)piperidine-4-carboxylic acid]
< 0.5 | COc1ccc(-c2ncc(CCCC(F)(F)F)nc2N2CCC(C(=O)O)CC2)cc1 [Compound 31, 1-(3-(4-methoxyphenyl)-6-(4,4,4-trifluorobutyl)pyrazin-2-yl)piperidine-4-carboxylic acid]
0.5 to 2 | COCCOc1ccc(-c2ncc(COCC(F)(F)F)nc2N2CCC(C(=O)O)CC2)cc1 [Compound 33, 1-(3-(4-(2-methoxyethoxy)phenyl)-6-((2,2,2-trifluoroethoxy)methyl)pyrazin-2-yl)piperidine-4-carboxylic acid]
0.5 to 2 | COCCOc1ccc(-c2ncc(CCCC(F)(F)F)nc2N2CCC(C(=O)O)CC2)cc1 [Compound 34, 1-(3-(4-(2-methoxyethoxy)phenyl)-6-(4,4,4-trifluorobutyl)pyrazin-2-yl)piperidine-4-carboxylic acid]
< 0.5 | CCCCc1cnc(-c2ccc(OCCOC)c(F)c2)c(N2CCC(C(=O)O)CC2)n1 [Compound 37, 1-(6-butyl-3-(3-fluoro-4-(2-methoxyethoxy)phenyl)pyrazin-2-yl)piperidine-4-carboxylic acid]
< 0.5 | CCCCc1cnc(-c2ccc(OC)cc2)c(-c2ccc3c(C(=O)O)c[nH]c3c2)c1 [Compound 39, 6-(5-butyl-2-(4-methoxyphenyl)pyridin-3-yl)-1H-indole-3-carboxylic acid]
